From patent US12145915B1 (priority 2023, dated 2024)
In brackets after ≈: the same amount, converted by molar mass.

Key:
[1] = test system: Mycobacterium tuberculosis H37Rv (ATCC: 25177); assay: Resazurin Microplate Assay (REMA), MIC against H37Rv strain; assay type: cell-based; settings: 192 h, read-out: Anti-tubercular activity against Mycobacterium tuberculosis (μg/mL) H37Rv (MIC)

Cc1nc(-c2ccc(OCC(C)C)c(C#N)c2)sc1C(=O)N/N=C/c1ccc([N+](=O)[O-])o1
melting point: 228 to 230 °C

Cc1nc(-c2ccc(OCC(C)C)c(C#N)c2)sc1C(=O)N/N=C/c1ccc(F)c(Oc2ccccc2)c1 [KNV-TZL1, (E)-2-(3-Cyano-4-isobutoxyphenyl)-N-(4-fluoro-3-phenoxybenzylidene)-4-methylthiazole-5-carbohydrazide]
MIC [1]: 8 µg/mL (≈ 15.1 µM)
melting point: 138 to 140 °C

COc1cc(/C=N/NC(=O)c2sc(-c3ccc(OCC(C)C)c(C#N)c3)nc2C)ccc1O [KNV-TZL2, (E)-2-(3-Cyano-4-isobutoxyphenyl)-N-(4-hydroxy-3-methoxybenzylidene)-4-methylthiazole-5-carbohydrazide]
MIC [1]: 16 µg/mL (≈ 34.4 µM)
melting point: 230 to 232 °C
